Assay results as given in US9193884B2, “Ink composition” (Hewlett-Packard Development Company, L.P., priority 2011, dated 2015).

What was measured:
[1] = cited from earlier work
[2] = limiting area and limiting radius of fatty acids; type: physicochemical
Text: Fatty acids with one or two cis double bonds have this limiting area; while those with three or more cis double bonds have larger limiting areas. The saturated and trans fatty acids have limiting areas much smaller than this.

[3] = solubility of lithium fatty acid salts; type: physicochemical

CCCCCCCC/C=C\CCCCCCCC(=O)O [Oleic, oleic acid]
pKa [1]: 9.85 | Limiting radius [2]: 3.61 Å

CCCCCCCCCCCCCCCCCC(=O)O [Stearic, stearic acid]
Limiting radius [2]: 2.52 Å

CCCCC/C=C\C/C=C\CCCCCCCC(=O)O [Linoleic, linoleic acid]
Limiting radius [2]: 3.91 Å

CCCCCCCC/C=C/CCCCCCCC(=O)O [Elaidic, elaidic acid]
pKa [1]: 9.95 | Limiting radius [2]: 3.24 Å

CCCCCCCCCCCC(=O)[O-].[Li+] [dodecanoate, lithium dodecanoate]
solubility [3]: higher solubility than that of oleic acid
